# In patent US9688676B2, “Tyrosine kinase inhibitors” (PRINCIPIA BIOPHARMA INC., priority 2015, dated 2017):
# Columns and labels:
# [1] = target: T1, BTK (Homo sapiens (Human), UniProt Q06187); test: BTK enzymatic activity assay (Caliper-based kinase assay); assay type: biochemical; details: human recombinant BTK 0.5 nM, ATP 16 μM, 3 h room temperature
# Method: A Caliper-based kinase assay (Caliper Life Sciences, Hopkinton, Mass.) was used to measure inhibition of BTK kinase activity of a compound of the present disclosure. […] The reaction was then terminated with EDTA, final concentration 20 mM and the phosphorylated reaction product was quantified on a Caliper Desktop Profiler (Caliper LabChip 3000). […] This value is presented as the IC50.
# [2] = target: T1, BTK; test: Determination of drug-kinase residence time (TR-FRET tracer competition, occupancy after washout); assay type: binding; details: 1.5 μM compound, 500 nM BTK; for % occupany at 1 h: 1 h of washout; for % occupany at 6 h: 6 h of washout; for % occupany at 24 h: 24 h of washout
# Method: The experiment was conducted in a buffer consisting of 50 mM Hepes pH 7.5, 10 mM MgCl2, 0.01% Triton X-100, and 1 mM EGTA.
# The mixture was then diluted 5-fold by addition of 40 μL of buffer. […] In order to probe for reversibility of the kinase-compound binding interaction, a competition solution containing both a high affinity fluorescent tracer and an antibody coupled to Europium was prepared. […] The competition solution also contained 80 nM of an Anti-polyhistidine antibody coupled to Europium (Invitrogen Cat. #PV5596) which is designed to bind the polyhistidine purification tag in BTK.
# It is to be expected that covalent and slow dissociating inhibitors will block binding of the tracer while rapidly dissociating non-covalent inhibitors will not. […] Data were plotted at percentage of signal obtained in the absence of competitor compound. The background signal was obtained by omission of BTK from the reaction. […] If the compound is a reversible covalent inhibitor, the tracer will bind the target as the compound dissociates from the target.
# T1 sequence (Q06187 whole entry): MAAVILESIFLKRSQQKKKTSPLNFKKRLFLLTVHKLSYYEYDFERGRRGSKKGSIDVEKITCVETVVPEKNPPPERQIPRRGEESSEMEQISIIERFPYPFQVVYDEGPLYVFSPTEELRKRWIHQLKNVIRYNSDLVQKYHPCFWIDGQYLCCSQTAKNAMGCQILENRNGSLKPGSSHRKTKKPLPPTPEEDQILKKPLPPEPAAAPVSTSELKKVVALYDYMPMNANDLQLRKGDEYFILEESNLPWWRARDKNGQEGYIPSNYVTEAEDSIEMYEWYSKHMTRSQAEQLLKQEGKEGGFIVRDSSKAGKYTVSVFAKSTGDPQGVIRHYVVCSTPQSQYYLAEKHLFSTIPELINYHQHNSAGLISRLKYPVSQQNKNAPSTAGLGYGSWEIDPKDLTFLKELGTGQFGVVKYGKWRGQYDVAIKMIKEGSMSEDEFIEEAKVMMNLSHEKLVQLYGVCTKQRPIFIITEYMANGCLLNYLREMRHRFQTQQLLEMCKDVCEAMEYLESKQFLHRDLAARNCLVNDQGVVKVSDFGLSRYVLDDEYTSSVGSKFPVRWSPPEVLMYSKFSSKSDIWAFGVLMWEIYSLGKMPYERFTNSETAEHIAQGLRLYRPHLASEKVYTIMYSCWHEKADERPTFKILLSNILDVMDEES
compound,measurement,setting,value
"CN1CCC(C(C)(C)C=C(C#N)C(=O)N2CCC[C@@H](n3c(=O)n(-c4ccc(Oc5ccccc5)cc4)c4c(N)nccc43)C2)CC1 [Compound 7, (R)-2-(3-(4-amino-2-oxo-3-(4-phenoxyphenyl)-2,3-dihydro-1H-imidazo[4,5-c]pyridin-1-yl)piperidine-1-carbonyl)-4-methyl-4-(1-methylpiperidin-4-yl)pent-2-enenitrile]",IC50,[1],1.8 nM
same,% occupany at 1 h,[2],61.932%
same,% occupany at 6 h,[2],−1.3946%
same,% occupany at 24 h,[2],−12.344%
"CC(C)(C=C(C#N)C(=O)N1CCC[C@@H](n2c(=O)n(-c3ccc(Oc4ccccc4)cc3)c3c(N)nccc32)C1)N1CCN(CC(F)(F)F)CC1 [Compound 6, (R)-2-(3-(4-amino-2-oxo-3-(4-phenoxyphenyl)-2,3-dihydro-1H-imidazo[4,5-c]pyridin-1-yl)piperidine-1-carbonyl)-4-methyl-4-(4-(2,2,2-trifluoroethyl)piperazin-1-yl)pent-2-enenitrile]",IC50,[1],5.9 nM
same,% occupany at 1 h,[2],94.404%
same,% occupany at 6 h,[2],86.64%
same,% occupany at 24 h,[2],67.505%
